Source: patent publication US10632227B2, “Method of making injectable cements” (Wayne State University, priority 2015, dated 2020)

Test system: S. aureus
Test: modified MIC assay, bactericidal activity of eluents from CPP mix cements
Format: cell-based
Settings: EM eluted from cement or gel
Experimental: A modified minimum inhibitory concentration (MIC) assay was developed to measure the bactericidal activity of erythromycin eluted from the CPP mix cements. Briefly, a Mueller-Hinton broth inoculated with S. aureus […] was cultured at about 37° C. until an absorbance reading of about 0.08 to about 0.1 was attained at 625 nm, corresponding to roughly 1-2×10^8 CFU/ml. Then about 200 μl of eluents from CPP mix cements collected at various time points was added into about 800 μL of the bacterial broth and incubation continued at about 37° C. for about 6 hours, followed by OD measurement at about 625 nm. The MIC was determined by the lowest concentration that inhibited the growth of bacterium as characterized by a lack of turbidity and lower OD readings. Bacterial culture in Mueller Hinton broth without erythromycin was included as a positive control. Bactericidal activity assays were conducted in duplicate for both the blank and testing samples.

`CC[C@H]1OC(=O)[C@H](C)[C@@H](O[C@H]2C[C@@](C)(OC)[C@@H](O)[C@H](C)O2)[C@H](C)[C@@H](O[C@@H]2O[C@H](C)C[C@H](N(C)C)[C@H]2O)[C@](C)(O)C[C@@H](C)C(=O)[C@H](C)[C@@H](O)[C@]1(C)O` [EM, erythromycin] was tested, and the “bactericidal activity / stability of eluted EM” value was “stable and active”.
